The values below come from US20260015436A1, “ANTIBODIES FOR CHELATED RADIONUCLIDES” (Hoffmann-La Roche Inc., priority 2018, published 2026).

One data set deals with BxPC3 tumors. Description: Protocol 95: TCMC saturation, CA amount and ^212Pb activity on tumor-associated radioactivity. To be noted: no clearing agent. It counts as in vivo, mice. The source says: In this study, nine different clearing agents based on dextran-500 were compared in terms of inhibition of ^212Pb-DOTAM association to tumors. More specifically, the experiment assessed the impact on tumor-associated radioactivity from i) TCMC saturation, ii) clearing agent-to-antibody ratio, and iii) production/purification method. In addition, the tumor uptake was compared after injection of 10 or 30 μCi of ^212Pb-DOTAM, without pretargeting or CA, to assess whether radioactivity saturation of the tumor was achieved already at the lower dose.
PRIT-0165 (100 μg per 100 μL) was administered i.v., followed three days later by dextran-500-based clearing reagents (10-170 μg per 100 μL) with varying TCMC substitution (10-100%). Groups J and K received PBS instead of clearing agent. Two hours later, mice were injected i.v. with 100 μL of the respective ^212Pb-DOTAM solutions (10 or 30 μCi).
Mice were sacrificed and necropsied 24 hours after injection of ^212Pb-DOTAM. Blood, bladder, spleen, kidneys, liver, lung, muscle, tail, and tumors were collected, weighed and measured for radioactivity content, and the % ID/g subsequently calculated.

In a further data set the test system is LS174T tumors. The experiment in a line: Protocol 93b: efficacy and biodistribution of CEA-PRIT, LS174T model. It counts as in vivo, mice. Conditions: day 22; 30+30 μCi. The protocol: The bispecific antibodies were compared side-by-side in single- and double-cycle treatment regimens.
Groups A-G represent the treated mice that were followed up for assessment of efficacy, whereas groups H-L comprise mice that were sacrificed for biodistribution purposes 24 h after their last ^212Pb-DOTAM injection.
For protocol 93b, mice (age 9 weeks) were injected s.c. into the right flank with 1×10^6 LS174T cells (passage 26) in 100 μL DMEM/Matrigel. Three days after tumor cell injection, mice were sorted into experimental groups with an average tumor volume of 150 mm^3.
To minimize re-ingestion of radioactive urine/feces after treatment cycle 1, cages were changed 4 hours after ^212Pb-DOTAM administration, and then again at 24 h p.i. […]
The tumor development in the mice was followed through repeated calipering three times a week. […] The body weight of the animals was measured repeatedly in the same fashion. […]
Mice in groups H, J, and L were sacrificed and necropsied 24 hours after their first and only injection of ^212Pb-DOTAM; groups I and K were sacrificed and necropsied 24 hours after their second ^212Pb-DOTAM injection. […] Collected samples were weighed and measured for radioactivity, and the percent injected dose per gram of tissue (% ID/g) subsequently calculated, including corrections for decay and background.

For a further data set, the system named is WSU-DLCL2 tumors. Description: Protocol 162: CD20-PRIT efficacy. To be noted: multiple injections of 20 μCi (PRIT); result in words. The class given is in vivo, SCID mice. As to the method:
The aim of this study was to show proof-of-concept of the treatment regimen developed for CEA-PRIT directed against an alternative target: cluster of differentiation 20 (CD20). The therapeutic efficacy was evaluated after 3 cycles of CD20-PRIT in mice bearing subcutaneous WSU-DLCL2 tumors. Comparisons were also made with: 1-step CD20-RIT, using BsAbs that were pre-incubated with ^212Pb-DOTAM before injection; with rituximab, a type I monoclonal antibody directed against CD20 and a reference in treatment of CD20+ diseases; and with GA101, a type II monoclonal antibody also directed against CD20.
Animals were treated according to the experimental schedule illustrated in FIG. 59. Solid WSU-DLCL2 xenografts were established in SCID mice aged 8 weeks on study day 0 by subcutaneous injection of 1.5×10^5 cells into the right flank. […]
Mice in groups H, I, and L were sacrificed and necropsied for biodistribution purposes 24 hours after their first and only injection of ^212Pb-DOTAM or ^212Pb-DOTAM-BsAb; groups J and K were sacrificed and necropsied 24 hours after their second and third ^212Pb-DOTAM injection, respectively. […] Collected samples were weighed and then measured for radioactivity using a 2470 WIZARD^2 automatic gamma counter (PerkinElmer), and the percent injected dose per gram of tissue (% ID/g) subsequently calculated, including corrections for decay and background. […]

The structures appear in SMILES notation.

`NC(=O)CN1CCN(CC(N)=O)CCN(CC(N)=O)CCN(CC(N)=O)CC1.[212Pb+2]` [^212Pb-DOTAM]: the figures for the “tumor accumulation (±SD, n=3)” value in the data set on BxPC3 tumors (10 μCi) and with BxPC3 tumors (30 μCi) were 72.38±10.83 % ID/g and 107.74±14.71 % ID/g, respectively. Besides, the “TGI compared with PBS” value in the data set on LS174T tumors stood at 64.7%. In addition, the BW development entry in the data set on WSU-DLCL2 tumors is reported as “well tolerated”.
